Molecules are shown by their SMILES.

The results in this text go back to patent US20220193025A1, “USE OF DIANHYDROHEXITOL TO ELIMINATE THE COSMETIC EFFECTS OF ACNE, DANDRUFF AND BAD ODORS” (ROQUETTE FRERES, priority 2019, published 2022).

The test deals with Malassezia furfur strain. Put plainly: Example 2: microbial population count over 28 days after contamination (microtiter method, TTC). Type of test: cell-based. Particulars: for Number of colony forming strains after: 24 h / Number of colony forming strains after: 7 days / Number of colony forming strains after: 14 days / Number of colony forming strains after: 21 days / Number of colony forming strains after: 28 days: 22° C. The method, then: The samples are prepared under sterile conditions and deposited in microplates (2-ml wells) with the concentrations hereunder. Two analysis controls were produced: a positive control corresponding to 0.5% Phenonip®; a negative control consisting of 0.85% physiological saline solution. Samples and controls are contaminated by a Malassezia furfur fungal strain with around 1.50×10^4 to 3.80×10^4 colony forming units per milliliter, denoted cfu/ml. After contamination, the samples are carefully mixed by suction-discharge cycles in order to ensure a uniform distribution of the microorganism. The whole is incubated at 22° C. during 28 days. The microbial population is sampled and counted at 24 hours, 7, 14, 21 and 28 days for the bacterial strain. The contaminated samples are collected and then deposited in serial dilutions in microtiter plates, in the presence of culture medium, which is a saline solution with 0.85% sodium chloride, and a dehydrogenase activity indicator reagent, which is 2,3,5-triphenyltetrazolium chloride (denoted TTC). The results are presented in the following pages with the variation of the microbial population over the 28 days of study, for the tested microbial strain. The measurements of microbial populations in the samples collected at each time, are carried out according to the following microtiter method, for one sample collection. In the 96 wells with a volume of 250 μL of a microtiter plate, 20 μL of the collected sample are diluted by a factor of 10 by dispersion in 180 μL of Letheen broth (Difco, ref. 268110) containing 1.5% of Tween 80 (Sigma, ref. […]) and TTC (Sigma, ref. […]). The microplate is incubated for 48 hours at 32.5° C., and the growth of the microorganisms is monitored by the color change, from colorless to red/pink. The highest reciprocal dilution indicating a growth makes it possible to determine the log number of each microorganism at each time. The measurements of microbial populations taken at each collection time are expressed as colony forming units/ml.

For the compound `O[C@@H]1CO[C@H]2[C@@H]1OC[C@@H]2O` [isosorbide, 1,4-3,6-dianhydrosorbitol], the “effect on the strain (conclusion in words)” value is reported as “bactericide”. Also, where the note is “after 24 hours”, the “colony forming strain observed” value is “no colony forming strain is observed”. Where the note is “dose of isosorbide 1%”, the “Number of colony forming strains after: 24 h” value (“Number … 24 h” below) is given as 0 colony forming units/ml, the “Number of colony forming strains after: 7 days” value (shortened to “Number … 7 days”) was found to be 0 colony forming units/ml, the “Number of colony forming strains after: 14 days” value (shortened to “Number … 14 days”) was 0 colony forming units/ml and the “Number of colony forming strains after: 21 days” value (“Number … 21 days” below) turned out to be 0 colony forming units/ml. Moreover, where the note is “dose of isosorbide 1%”, the “Number of colony forming strains after: 28 days” value (from here on “Number … 28 days”) turned out to be 0 colony forming units/ml. In addition, for the setting “dose of isosorbide 5%”, the “Number … 24 h” value turned out to be 0 colony forming units/ml, the “Number … 7 days” value is 0 colony forming units/ml, the “Number … 14 days” value is on record as 0 colony forming units/ml and the “Number … 21 days” value amounted to 0 colony forming units/ml. For the same compound, the “Number … 28 days” value (dose of isosorbide 5%) is reported as 0 colony forming units/ml. Further, for the setting “dose of isosorbide 9%”, the “Number … 24 h” value is listed as 0 colony forming units/ml, the “Number … 7 days” value worked out at 0 colony forming units/ml, the “Number … 14 days” value is listed as 0 colony forming units/ml and the “Number … 21 days” value amounted to 0 colony forming units/ml. The “Number … 28 days” value (dose of isosorbide 9%) worked out at 0 colony forming units/ml.
